Test results as given in PMC11742250, “Study on the absorption characteristics of euscaphic acid and tiliroside in fruits of Rosa laxa Retz” (PeerJ, 2025).
Each block holds one compound with its values, some of them ahead of it.

Columns and labels:
Assay type in all cases: in vitro ADME, human
[1] = in vitro; details: human; for Papp at 180 min: Caco-2
Procedure: (§1) A precise amount of FRLE reserve solution is diluted to concentrations of 50, 100, and 150 μg/mL, representing the low, medium, and high concentrations of FRLE. Additionally, solutions are prepared containing 0.100 μmoL/mL Verapamil (Ver), 0.099 μmoL/mL Cyclosporine A (CsA), and 0.025 μmoL/mL EGTA at low, medium, and high concentrations for bidirectional transport.
(§2) Caco-2 cells are seeded at a density of 2.5 × 10^5 cells/mL, with 0.5 mL inoculated into each well of a Transwell® 12-well plate. After continuous culturing for 18 days, the cell model is established. Bidirectional transport experiments include AP→BL ([…], absorption transport) and BL→AP ([…], secretion transport).
(§3) Taking absorption transport as an example: 0.5 mL of drug-containing Hank’s Balanced Salt Solution (HBSS) solution is added to the apical (AP) side (supply side), while 1.5 mL of blank solution is added to the basolateral (BL) side (receiving side). At time points 15, 30, 60, 90, 120, 150, and 180 min, 200 µL is drawn from the BL side and simultaneously supplemented with 200 µL of HBSS buffer. The samples are then evaporated in a water bath, re-dissolved in methanol, and centrifuged at 12,000 rpm for 10 min. The supernatant is taken and assayed under the conditions described in “Establishment of the determination method for euscaphic acid and tiliroside”. The effects of different times, concentrations, inhibitors, chelating agents, and pH values on the absorption characteristics of euscaphic acid and tiliroside in FRLE are investigated. The secretion transport procedure is identical to the absorption transport ([Artursson & Karlsson, 1991]).
(§4) The side with the added blank solution is considered the receiving side, and the amount of drug in the receiving side is regarded as its absorption amount (Qr). In the A→B transport test, the amount of drug absorbed by the B-side chamber at any time point is denoted as (QrBi). In the B→A transport test, the amount of drug absorbed by the A-side chamber at any time point is (QrAi). The specific calculations are provided in the following formulas:
(§5) A-B transport: QrBi = 0.2 × (Cr1 + Cr2 + Λ + Cr(i-1)) + 1.5 × Cri
(§6) B-A transport: Qrdi = 0.2 × (Cr1 + Cr2 + Λ + Cr(i-1)) + 0.5 × Cdi
(§7) In the formula, 1.5 represents the volume of the test solution added to the B-side chamber (mL), 0.5 represents the volume of the test solution added to the A-side chamber (mL), and 0.2 is the volume of each sample taken (mL). Cri is the actual concentration in the receiving chamber at the i-th time point (μg/mL). The apparent permeability coefficient Papp (cm/s) is calculated using the following formula ([Lu et al., 2020]):
(§8) Papp=dQ/dt×1/A×C0 dQ/dt represents the amount of drug transported per unit of time (μg/s); A is the surface area of the 12-well Transwell® membrane (1.12 cm^2), and C0 is the initial concentration of the drug in the donor side ([…]) ([Qu et al., 2021]).
(§9) Exhaust ratio (RB-A/A-B)) is calculated using the following formula: RB−A/A−B=Papp(B−A)/Papp(A−B)

[2] = system: P-gp; assay: in vitro; details: human; for efflux ratio at 180 min, 50 μg/mL / efflux ratio at 180 min, 100 μg/mL / efflux ratio at 180 min, 150 μg/mL: Caco-2, RB→A/A→B
Procedure: as §1, §2, §3, §4, §5, §6, §7, §8, §9

[3] = system: Caco-2 cells; assay: in vitro; details: for P-gp substrate status / absorption category from Papp / transport mechanism: Caco-2; for Papp / RB→A/A→B ratios, range over all conditions / RB→A/A→B: Caco-2, 180 min
Procedure: as §1, §2, §3, §4, §5, §6, §7, §8, §9

[4] = system: Caco-2 cells; assay: Evaluation of the Caco-2 cell model with fluorescein sodium as marker (Papp, monolayer integrity); details: Caco-2 monolayer, four repeated measurements
Procedure: The evaluation of the Caco-2 cell model primarily involves using fluorescein sodium as a marker. The cells are seeded in a 12-well cell plate (10^5 cells/well) and observed and photographed every two days under a fluorescence inverted microscope. The transepithelial electrical resistance (TEER) is measured using a resistance meter (Millipore Millicell ERS-2; Millipore Sigma, Darmstadt, Germany). […] Markers used for detection mainly include mannitol, inulin, and fluorescein sodium.

[5] = Caco-2, efflux ratio (RB→A/A→B)
[6] = Caco-2, Papp × 10^−4 (cm/s) (A→B)
[7] = Caco-2, Papp × 10^−4 (cm/s) (B→A)
[8] = Caco-2, pH 5, Papp × 10^−4 (cm/s) (A→B)
[9] = Caco-2, pH 5, Papp × 10^−4 (cm/s) (B→A)
[10] = Caco-2, pH 6, Papp × 10^−4 (cm/s) (A→B)
[11] = Caco-2, pH 6, Papp × 10^−4 (cm/s) (B→A)
[12] = Caco-2, pH 8, Papp × 10^−4 (cm/s) (A→B)
[13] = Caco-2, pH 8, Papp × 10^−4 (cm/s) (B→A)
[14] = Caco-2, pH 9, Papp × 10^−4 (cm/s) (A→B)
[15] = Caco-2, pH 9, Papp × 10^−4 (cm/s) (B→A)

Papp at 180 min [1]: 0.754 to 26.9 ×10⁻⁶ cm/s
efflux ratio at 180 min, 50 μg/mL ([1]; Caco-2, RB→A/A→B): 0.88 ± 0.01
efflux ratio at 180 min, 100 μg/mL ([1]; Caco-2, RB→A/A→B): 0.86 ± 0.01
efflux ratio at 180 min, 150 μg/mL ([1]; Caco-2, RB→A/A→B): 1.38 ± 0.21
efflux ratio at 180 min [1, 5]: < 1.5
efflux ratio at 180 min, 50 μg/mL ([1]; Caco-2, pH 5, RB→A/A→B): 1.16 ± 0.08
efflux ratio at 180 min, 150 μg/mL ([1]; Caco-2, pH 5, RB→A/A→B): 0.97 ± 0.06
efflux ratio at 180 min, 50 μg/mL ([1]; Caco-2, pH 6, RB→A/A→B): 0.95 ± 0.05
efflux ratio at 180 min, 100 μg/mL ([1]; Caco-2, pH 6, RB→A/A→B): 1.19 ± 0.02
efflux ratio at 180 min, 150 μg/mL ([1]; Caco-2, pH 6, RB→A/A→B): 1.03 ± 0.09
efflux ratio at 180 min ([1]; Caco-2, pH 6, RB→A/A→B value): ~1
efflux ratio at 180 min, 50 μg/mL ([1]; Caco-2, pH 8, RB→A/A→B): 1.12 ± 0.03
efflux ratio at 180 min, 150 μg/mL ([1]; Caco-2, pH 8, RB→A/A→B): 0.91 ± 0.05
efflux ratio at 180 min, 50 μg/mL ([1]; Caco-2, pH 9, RB→A/A→B): 1.08 ± 0.03
efflux ratio at 180 min, 50 μg/mL [2]: 0.72 ± 0.01
efflux ratio at 180 min, 100 μg/mL [2]: 0.78 ± 0.06
efflux ratio at 180 min, 150 μg/mL [2]: 1.58 ± 0.01
P-gp substrate status [3]: substrates of P-gp
absorption category from Papp [3]: good absorption
transport mechanism [3]: passive diffusion
transport of euscaphic acid over time (Fig. 5M-O) ([3]; human, Caco-2, 15 min, 50 μg/mL, pH 9): 0.08
absorption amount (Qr) ([3]; human, Caco-2, 120 min, 50 μg/mL): 4.56
transport of euscaphic acid over time (Fig. 5M-O) ([3]; human, Caco-2, 150 min, 50 µg/mL, pH 9): 0.45
Papp ([3]; human): greater than 10^−6
RB→A/A→B ratios, range over all conditions ([3]; human): 0.72-1.58
RB→A/A→B ([3]; human, 100 μg/mL, pH 5): 1.16 ± 0.03
RB→A/A→B ([3]; human, 100 μg/mL, pH 8): 0.95 ± 0.02
RB→A/A→B ([3]; human, 100 μg/mL, pH 9): 1.16 ± 0.04
RB→A/A→B ([3]; human, 150 μg/mL, pH 9): 1.14 ± 0.01
Compound: C[C@@H]1CC[C@]2(C(=O)O)CC[C@]3(C)C(=CC[C@@H]4[C@@]5(C)C[C@@H](O)[C@@H](O)C(C)(C)[C@@H]5CC[C@]43C)[C@@H]2[C@]1(C)O [Euscaphic acid]

Papp at 180 min [1]: 0.042 to 0.808 ×10⁻⁶ cm/s
Papp A→B at 180 min, 50 μg/mL [1, 6]: 137 ± 2 ×10⁻⁶ cm/s
Papp A→B at 180 min, 100 μg/mL [1, 6]: 176 ± 13 ×10⁻⁶ cm/s
Papp A→B at 180 min, 150 μg/mL [1, 6]: 268 ± 9 ×10⁻⁶ cm/s
Papp B→A at 180 min, 50 μg/mL [1, 7]: 129 ± 2 ×10⁻⁶ cm/s
Papp B→A at 180 min, 100 μg/mL [1, 7]: 210 ± 4 ×10⁻⁶ cm/s
Papp B→A at 180 min, 150 μg/mL [1, 7]: 283 ± 3 ×10⁻⁶ cm/s
efflux ratio at 180 min, 50 μg/mL ([1]; Caco-2, RB→A/A→B): 0.82 ± 0.04
efflux ratio at 180 min, 100 μg/mL ([1]; Caco-2, RB→A/A→B): 0.75 ± 0.07
efflux ratio at 180 min [1, 5]: < 1.5
Papp A→B at 180 min, 50 μg/mL [1, 8]: 380 ± 9 ×10⁻⁶ cm/s
Papp A→B at 180 min, 100 μg/mL [1, 8]: 409 ± 7 ×10⁻⁶ cm/s
Papp A→B at 180 min, 150 μg/mL [1, 8]: 649 ± 8 ×10⁻⁶ cm/s
Papp B→A at 180 min, 50 μg/mL [1, 9]: 448 ± 8 ×10⁻⁶ cm/s
Papp B→A at 180 min, 100 μg/mL [1, 9]: 536 ± 14 ×10⁻⁶ cm/s
Papp B→A at 180 min, 150 μg/mL [1, 9]: 718 ± 24 ×10⁻⁶ cm/s
efflux ratio at 180 min, 50 μg/mL ([1]; Caco-2, pH 5, RB→A/A→B): 1.18 ± 0.01
efflux ratio at 180 min, 100 μg/mL ([1]; Caco-2, pH 5, RB→A/A→B): 1.31 ± 0.02
efflux ratio at 180 min, 150 μg/mL ([1]; Caco-2, pH 5, RB→A/A→B): 1.11 ± 0.05
Papp A→B at 180 min, 50 μg/mL [1, 10]: 473 ± 24 ×10⁻⁶ cm/s
Papp A→B at 180 min, 100 μg/mL [1, 10]: 468 ± 14 ×10⁻⁶ cm/s
Papp A→B at 180 min, 150 μg/mL [1, 10]: 618 ± 28 ×10⁻⁶ cm/s
Papp B→A at 180 min, 50 μg/mL [1, 11]: 568 ± 24 ×10⁻⁶ cm/s
Papp B→A at 180 min, 100 μg/mL [1, 11]: 614 ± 8 ×10⁻⁶ cm/s
Papp B→A at 180 min, 150 μg/mL [1, 11]: 808 ± 15 ×10⁻⁶ cm/s
efflux ratio at 180 min, 50 μg/mL ([1]; Caco-2, pH 6, RB→A/A→B): 1.2 ± 0.11
efflux ratio at 180 min ([1]; Caco-2, pH 6, RB→A/A→B value): ~1
Papp A→B at 180 min, 50 μg/mL [1, 12]: 86 ± 12 ×10⁻⁶ cm/s
Papp A→B at 180 min, 100 μg/mL [1, 12]: 92 ± 17 ×10⁻⁶ cm/s
Papp A→B at 180 min, 150 μg/mL [1, 12]: 96 ± 14 ×10⁻⁶ cm/s
Papp B→A at 180 min, 50 μg/mL [1, 13]: 83 ± 600 ×10⁻⁶ cm/s
Papp B→A at 180 min, 100 μg/mL [1, 13]: 88 ± 11 ×10⁻⁶ cm/s
Papp B→A at 180 min, 150 μg/mL [1, 13]: 93 ± 18 ×10⁻⁶ cm/s
efflux ratio at 180 min, 50 μg/mL ([1]; Caco-2, pH 8, RB→A/A→B): 1.03 ± 0.01
efflux ratio at 180 min, 100 μg/mL ([1]; Caco-2, pH 8, RB→A/A→B): 1.04 ± 0.03
Papp A→B at 180 min, 50 μg/mL [1, 14]: 45 ± 4 ×10⁻⁶ cm/s
Papp A→B at 180 min, 100 μg/mL [1, 14]: 56 ± 24 ×10⁻⁶ cm/s
Papp A→B at 180 min, 150 μg/mL [1, 14]: 66 ± 26 ×10⁻⁶ cm/s
Papp B→A at 180 min, 50 μg/mL [1, 15]: 42 ± 15 ×10⁻⁶ cm/s
Papp B→A at 180 min, 100 μg/mL [1, 15]: 54 ± 18 ×10⁻⁶ cm/s
Papp B→A at 180 min, 150 μg/mL [1, 15]: 62 ± 21 ×10⁻⁶ cm/s
efflux ratio at 180 min, 50 μg/mL ([1]; Caco-2, pH 9, RB→A/A→B): 1.07 ± 0.06
Papp A→B at 180 min, 50 μg/mL [2, 6]: 142 ± 2 ×10⁻⁶ cm/s
Papp A→B at 180 min, 100 μg/mL [2, 6]: 180 ± 5 ×10⁻⁶ cm/s
Papp A→B at 180 min, 150 μg/mL [2, 6]: 261 ± 6 ×10⁻⁶ cm/s
Papp B→A at 180 min, 50 μg/mL [2, 7]: 156 ± 3 ×10⁻⁶ cm/s
Papp B→A at 180 min, 100 μg/mL [2, 7]: 226 ± 9 ×10⁻⁶ cm/s
Papp B→A at 180 min, 150 μg/mL [2, 7]: 276 ± 1 ×10⁻⁶ cm/s
efflux ratio at 180 min, 50 μg/mL [2]: 1.09 ± 0.03
efflux ratio at 180 min, 100 μg/mL [2]: 1.25 ± 0.06
efflux ratio at 180 min, 150 μg/mL [2]: 0.96 ± 0.02
P-gp substrate status [3]: substrates of P-gp
absorption category from Papp [3]: good absorption
transport mechanism [3]: passive diffusion
Papp ([3]; human): greater than 10^−6
RB→A/A→B ratios, range over all conditions ([3]; human): 0.75-1.31
RB→A/A→B ([3]; human, 100 μg/mL, pH 6): 1.31 ± 0.05
RB→A/A→B ([3]; human, 100 μg/mL, pH 9): 1.03 ± 0.04
RB→A/A→B ([3]; human, 150 μg/mL, pH 6): 1.21 ± 0.15
RB→A/A→B ([3]; human, 150 μg/mL, pH 8): 1.03 ± 0.05
RB→A/A→B ([3]; human, 150 μg/mL, pH 9): 1.06 ± 0.05
Compound: O=C(/C=C/c1ccc(O)cc1)OC[C@H]1O[C@@H](Oc2c(-c3ccc(O)cc3)oc3cc(O)cc(O)c3c2=O)[C@H](O)[C@@H](O)[C@@H]1O [Tiliroside]

Compound: O=C([O-])c1ccccc1-c1c2ccc(=O)cc-2oc2cc([O-])ccc12.[Na+].[Na+] [fluorescein sodium, Fluorescein sodium]
Papp of fluorescein sodium [4]: 4.06 ± 0.17 × 10^−7 cm/s
